By EC50 is commonly meant the concentration at which the effect is half-maximal. A word on the IC50: it is the point on the concentration scale where inhibition reaches its midpoint.

Assay [1] has as its system TNFα. Kind of assay: IRAK4 Monocyte TNFα Cell Based Assay (LPS-stimulated, TR-FRET TNFα detection). The arrangement: species or system human. As to conditions: Homo sapiens, Monocyte, human monocytes, LPS-stimulated; Table 2 second part (compounds 33-343); read-out: EC50 MONO TNF HTRF. An outline of the steps:
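Monocytes (5,000 cells/well) treated with compound (0.1% DMSO) for 1 hour at 37° C, then stimulated with 50 pg/ml LPS for 4 hours. TNFα in medium quantified by TR-FRET two-antibody detection after overnight room-temperature incubation. Percent of control calculated against unstimulated (0%) and LPS-stimulated (100%) cells.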

Assay [2] has as its target T1, IRAK4 enzyme (Homo sapiens, UniProt Q9NWZ3).
T1 construct: purchased Carna Biosciences, Chuo-ku, Kobe, Japan
T1 sequence (Q9NWZ3 1-460): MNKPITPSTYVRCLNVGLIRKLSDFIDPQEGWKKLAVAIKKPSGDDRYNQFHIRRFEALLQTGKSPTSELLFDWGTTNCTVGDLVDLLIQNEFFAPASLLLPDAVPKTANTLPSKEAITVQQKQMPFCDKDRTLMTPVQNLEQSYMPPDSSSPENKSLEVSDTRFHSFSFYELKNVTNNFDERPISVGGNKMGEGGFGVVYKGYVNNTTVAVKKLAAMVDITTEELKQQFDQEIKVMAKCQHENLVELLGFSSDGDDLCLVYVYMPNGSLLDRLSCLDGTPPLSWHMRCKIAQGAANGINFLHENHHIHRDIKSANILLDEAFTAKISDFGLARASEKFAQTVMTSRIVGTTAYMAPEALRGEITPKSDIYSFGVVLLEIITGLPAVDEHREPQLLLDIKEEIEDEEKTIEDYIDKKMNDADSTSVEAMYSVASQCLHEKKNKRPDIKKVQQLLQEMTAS
Kind of assay: IRAK4 Biochemical Assay (TR-FRET, STK1 KinEASE). As to conditions: 500 μM ATP, Table 2 second part (compounds 33-343), read-out: IC50 IRAK4-HTBS. An outline of the steps: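 Human IRAK4 (0.75 nM) preincubated 15 min with compound and 2 μM STK1 peptide, then reacted 120 min at room temperature with 500 μM ATP in HEPES pH 7.0 buffer with MgCl2 and DTT. EDTA stop with Cryptate anti-phosphopeptide antibody and tracer, 60 min; TR-FRET read as 665/615 nm ratio.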

On to `CC(C)Nc1cc(-c2ccc3cc(C#N)cnn23)ncc1-c1nnc(C(=O)N[C@H]2CC[C@@H](O)CC2)s1` [Example 224, 5-(6-(3-cyanopyrrolo[1,2-b]pyridazin-7-yl)-4-(isopropylamino)pyridin-3-yl)-N-((1s,4s)-4-hydroxycyclohexyl)-1,3,4-thiadiazole-2-carboxamide], for which the half-maximal effective concentration (EC50) in assay [1] came to 4770 nM. Besides, in assay [2], the IC50 amounted to 1.12 nM.

Take `CNc1cc(-c2ccc3cc(C#N)cnn23)ncc1-c1nnc([C@H]2C[C@H](NC(C)=O)C2)s1` [Example 282, N-((1r,3r)-3-(5-(6-(3-cyanopyrrolo[1,2-b]pyridazin-7-yl)-4-(methylamino)pyridin-3-yl)-1,3,4-thiadiazol-2-yl)cyclobutyl)acetamide]: the EC50 in assay [1] came out at 22.4 nM. For the same compound, the concentration for half-maximal inhibition (IC50) in assay [2] was found to be 0.59 nM.

With `CC(C)Nc1cc(-c2ccc3cc(C#N)cnn23)ncc1-c1nnc([C@H]2CC[C@H](NC(=O)C(C)(C)O)CC2)s1` [Example 315, N-((1r,4r)-4-(5-(6-(3-cyanopyrrolo[1,2-b]pyridazin-7-yl)-4-(isopropylamino)pyridin-3-yl)-1,3,4-thiadiazol-2-yl)cyclohexyl)-2-hydroxy-2-methylpropanamide], the EC50 in assay [1] came out at 10.9 nM. The IC50 in assay [2] was found to be 0.77 nM.

Take `CCOC(=O)Cc1nnc(-c2cnc(-c3ccc4cc(C#N)cnn34)cc2NC(C)C)s1` [Example 318, ethyl 2-(5-(6-(3-cyanopyrrolo[1,2-b]pyridazin-7-yl)-4-(isopropylamino)pyridin-3-yl)-1,3,4-thiadiazol-2-yl)acetate]: the EC50 in assay [1] amounted to 102 nM. In addition, the IC50 in assay [2] was determined as 0.94 nM.

For the origin of these results see US12060351B2, “Thiadiazole IRAK4 inhibitors” (Gilead Sciences, Inc., priority 2018, dated 2024).
